According to US20260347365A1, “COMPOUND FOR REGULATING AND CONTROLLING 15-PGDH ACTIVITY AND PREPARATION METHOD THEREFOR” (SCINNOHUB PHARMACEUTICAL CO.,LTD, priority 2023, published 2026):

These compounds were tested against T1, 15-PGDH (Homo sapiens, UniProt P15428) (assay: Detection of Activity of 15-PGDH Kinase (inhibition of 15-PGDH enzyme)). Settings: not given.
T1 construct: purchased Sino Biological Inc. 11205-H08E
T1 sequence (P15428 1-266): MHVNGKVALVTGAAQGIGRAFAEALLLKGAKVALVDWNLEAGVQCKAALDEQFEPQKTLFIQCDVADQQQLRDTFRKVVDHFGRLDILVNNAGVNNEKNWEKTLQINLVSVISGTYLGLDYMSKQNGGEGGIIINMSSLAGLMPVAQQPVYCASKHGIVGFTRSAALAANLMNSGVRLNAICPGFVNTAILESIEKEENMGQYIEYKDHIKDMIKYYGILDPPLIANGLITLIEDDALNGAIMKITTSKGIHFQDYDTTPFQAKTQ
Type: biochemical
Description: • a. A solution of pH 7.5 containing 50 mM Tris-HCl and 0.01% Tween 20 was prepared with ultrapure water as a reaction buffer; • b. a 10 mM mother liquor of the compound to be tested was prepared with DMSO, and then the reaction buffer was used to dilute the mother liquor of the compound to be tested to obtain solution 1 of the compound to be tested at a concentration of 4000 nM, and then the solution 1 of the compound to be tested was serially diluted into solutions 2-10 of the compound to be tested at 9 concentrations with a gradient difference of three-fold. 5 μL of each concentration of solutions 1-10 of the compound to be tested was respectively taken and added into a 384-well plate as test wells; • c. 5 μL of the reaction buffer was added to the 384-well plate as positive control and blank control wells; • d. the reaction buffer was used to prepare a 15-PGDH protein solution at a concentration of 5 ng/μL, 5 μL of the 15-PGDH protein solution was taken and added to the test wells and positive control wells, and 5 μL of the reaction buffer was added to the blank control wells at the same time, then the plate was centrifuged at 2000 rpm for 30 seconds; • e. the reaction buffer was used to prepare 5 mM β-NAD and 2 mM PGF2α, respectively, which were mixed at 1:1 by volume to obtain a substrate mixture, 10 μL of the substrate mixture was taken and added to the test wells, positive control wells and blank control wells to start the reaction; • f. the fluorescence signal value (Ex/Em=340/450) of each well was detected continuously by using a multifunctional microplate reader.
• a) Continuous fluorescence signal values were analyzed by using the “kinetic calculations-slope calculation method” in the PHERAstar Data analysis software to obtain the slope of each test well; • b) the inhibition rate % was calculated by using the following formula:
inhibition rate %=[1−(slope of test well-signal value of positive control well)/(signal value of blank control well-average signal value of positive control well)]×100%. • c) calculation of IC50 and plotting of inhibition rate-dose curves: IC50 values were calculated by fitting compound concentrations and corresponding inhibition rates with a nonlinear regression (dose response-variable slope) via using GraphPad Prism 6.0.
The formula is shown below: Y=Bottom+(Top−Bottom)/(1+10^((Log IC50−X)*HillSlope)), wherein X is a log value of a concentration of the compound, and Y is inhibition rate %.

IC50	SMILES
2 to 5 nM	O=C(c1ccc2c(c1)nc(-c1ccc3ocnc3c1)c1nccn12)N1CCCCC1 [Example 2, (4-(benzo[d]oxazol-5-yl)imidazo[1,2-a]quinoxalin-7-yl)(piperidin-1-yl)methanone]
2 to 5 nM	Cc1cnc2c(-c3ccc4c(c3)CN(C)C4=O)nc3cc(C(=O)N4CCCCC4)ccc3n12 [Example 3, 2-methyl-5-(1-methyl-7-(piperidine-1-carbonyl)imidazo[1,2-a]quinoxalin-4-yl) isoindolin-1-one]
< 2 nM	CN1Cc2cc(C3=Nc4cc(C(=O)N5CCCCC5)ccc4N4CC5(CC5)N=C34)ccc2C1=O [Example 4, 2-methyl-5-(7′-(piperidine-1-carbonyl)-1′H-spiro[cyclopropane-1,2′-imidazo[1,2-a]quinoxaline]-4′-yl) isoindolin-1-one]
5 to 10 nM	CN1Cc2cc(-c3nc4cc(C(=O)N5CCCCC5)ccc4n4cnnc34)ccc2C1=O [Example 5, 2-methyl-5-(7-(piperidine-1-carbonyl)-[1,2,4]triazolo[4,3-a]quinoxalin-4-yl) isoindolin-1-one]

Same assay, conditions: class symbols; substrates β-NAD and PGF2α, pH 7.5, fluorescence Ex/Em=340/450; read-out: IC50

SMILES	IC50
O=C(c1ccc2c(c1)nc(-c1cncnc1)c1nccn12)N1CCCCC1 [Example 8]	5 to 10 nM
O=C(c1ccc2c(c1)nc(-c1ccc3ncsc3c1)c1nccn12)N1CCCCC1 [Example 10]	5 to 10 nM
O=C(c1ccc2c(c1)nc(-c1ccccc1)c1nccn12)N1CCC(F)(F)CC1 [Example 16]	100 to 1000 nM
O=C(c1ccc2c(c1)nc(-c1ccccc1)c1nccn12)N1CCOCC1 [Example 17]	100 to 1000 nM
Cn1cc(-c2nc3cc(C(=O)N4CCCCC4)ccc3n3ccnc23)ccc1=O [Example 18]	10 to 20 nM
O=C(c1ccc2c(c1)nc(-c1ccc3nccnc3c1)c1nccn12)N1CCCCC1 [Example 19]	5 to 10 nM
O=C(c1ccc2c(c1)nc(-c1ccc3ncnn3c1)c1nccn12)N1CCCCC1 [Example 27]	5 to 10 nM
CCOC(=O)c1cn2cc(-c3nc4cc(C(=O)N5CCCCC5)ccc4n4ccnc34)ccc2n1 [Example 30]	5 to 10 nM
O=C1OCc2cc(-c3nc4cc(C(=O)N5CCCCC5)ccc4n4ccnc34)ccc21 [Example 31]	5 to 10 nM
CN1Cc2cc(-c3nc4cc(C(=O)N5CCCC5)ccc4n4ccnc34)ccc2C1=O [Example 40]	50 to 100 nM
CCOC(=O)c1ccc(-c2nc3cc(C(=O)N4CCCCC4)ccc3n3ccnc23)cc1 [Example 42]	5 to 10 nM
CC(C)C1CN2C(=N1)C(c1ccc3c(c1)CN(C)C3=O)=Nc1cc(C(=O)N3CCCCC3)ccc12 (centres unmarked) [Example 43]	5 to 10 nM
CC(C)CC1CN2C(=N1)C(c1ccc3c(c1)CN(C)C3=O)=Nc1cc(C(=O)N3CCCCC3)ccc12 (centres unmarked) [Example 44]	5 to 10 nM
CN1Cc2cc(C3=Nc4cc(C(=O)N5CCCCC5)ccc4N4CC(C(C)(C)C)N=C34)ccc2C1=O (centres unmarked) [Example 45]	5 to 10 nM
N#Cc1ccc(-c2nc3cc(C(=O)N4CCCCC4)ccc3c3nccn23)cn1 [Example 50]	5 to 10 nM
CN(C)c1ncc(-c2nc3cc(C(=O)N4CCCCC4)ccc3c3nccn23)cn1 [Example 52]	5 to 10 nM
O=C(c1ccc2c(c1)nc(-c1ccc3nccn3c1)n1ccnc21)N1CCCCC1 [Example 59]	5 to 10 nM
O=C(c1ccc2c(c1)nc(-c1ccc3c(c1)OCCO3)n1ccnc21)N1CCCCC1 [Example 60]	5 to 10 nM
Cn1ccc(-c2nc3cc(C(=O)N4CCCCC4)ccc3c3nccn23)cc1=O [Example 61]	5 to 10 nM
CCOC(=O)c1cc2cc(-c3nc4cc(C(=O)N5CCCCC5)ccc4c4nccn34)ccc2[nH]1 [Example 72]	5 to 10 nM
CN1Cc2cc(-c3nc4ccc(C(=O)N5CCCCC5)cc4c4nccn34)ccc2C1=O [Example 75]	100 to 1000 nM
CC(C)c1nc2c3ccc(C(=O)N4CCCCC4)cc3nc(-c3ccc4c(c3)CN(C)C4=O)n2n1 [Example 78]	2 to 5 nM
CN1Cc2cc(-c3nc4cc(C(=O)N5CCCCC5)ccc4c4nc(C(F)(F)F)nn34)ccc2C1=O [Example 79]	2 to 5 nM
CN1Cc2cc(C3=Nc4cc(C(=O)N5CCCCC5)ccc4C4=NCCN34)ccc2C1=O [Example 82]	5 to 10 nM

Now from value to compound:

IC50	SMILES
< 2 nM	CN1Cc2cc(-c3nc4cc(C(=O)N5CCCCC5)ccc4n4ccnc34)ccc2C1=O [Example 6]
2 to 5 nM	Nc1ncc(-c2nc3cc(C(=O)N4CCCCC4)ccc3n3ccnc23)cn1 [Example 7]
< 2 nM	Cn1ccc2cc(-c3nc4cc(C(=O)N5CCCCC5)ccc4n4ccnc34)ccc2c1=O [Example 20]
< 2 nM	Cn1cc2cc(-c3nc4cc(C(=O)N5CCCCC5)ccc4n4ccnc34)ccc2n1 [Example 21]
2 to 5 nM	Cn1ccc2cc(-c3nc4cc(C(=O)N5CCCCC5)ccc4n4ccnc34)cnc21 [Example 23]
2 to 5 nM	Cn1ncc2cc(-c3nc4cc(C(=O)N5CCCCC5)ccc4n4ccnc34)ccc21 [Example 24]
< 2 nM	O=C(c1ccc2c(c1)nc(-c1ccc3[nH]c(=O)[nH]c3c1)c1nccn12)N1CCCCC1 [Example 29]
< 2 nM	O=C(O)c1ccc(-c2nc3cc(C(=O)N4CCCCC4)ccc3n3ccnc23)cc1 [Example 33]
< 2 nM	Cc1cn2c(n1)c(-c1ccc3c(c1)CN(C)C3=O)nc1cc(C(=O)N3CCCCC3)ccc12 [Example 34]
< 2 nM	CN1Cc2cc(C3=Nc4cc(C(=O)N5CCCCC5)ccc4N4CCN=C34)ccc2C1=O [Example 35]
< 2 nM	CC1CN2C(=N1)C(c1ccc3c(c1)CN(C)C3=O)=Nc1cc(C(=O)N3CCCCC3)ccc12 (centres unmarked) [Example 36]
< 2 nM	CC1CN=C2C(c3ccc4c(c3)CN(C)C4=O)=Nc3cc(C(=O)N4CCCCC4)ccc3N21 (centres unmarked) [Example 37]
2 to 5 nM	CN1Cc2cc(-c3nc4cc(C(=O)N5CCC(F)CC5)ccc4n4ccnc34)ccc2C1=O [Example 38]
< 2 nM	CN1Cc2cc(C3=Nc4cc(C(=O)N5CCCCC5)ccc4N4CC(C)(C)N=C34)ccc2C1=O [Example 41]
2 to 5 nM	CN1Cc2cc(-c3nc4cc(C(=O)N5CCCCC5)ccc4c4nccn34)ccc2C1=O [Example 46, 2-methyl-5-(8-(piperidine-1-carbonyl)imidazo[1,2-c]quinazolin-5-yl) isoindolin-1-one]
2 to 5 nM	O=C(c1ccc2c(c1)nc(-c1ccc3c(c1)CCN3)n1ccnc21)N1CCCCC1 [Example 47]
2 to 5 nM	Cn1cc(-c2nc3cc(C(=O)N4CCCCC4)ccc3c3nccn23)cn1 [Example 53]
< 2 nM	O=C(c1ccc2c(c1)nc(-c1ccc3ncsc3c1)n1ccnc21)N1CCCCC1 [Example 54]
< 2 nM	Nc1ncc(-c2nc3cc(C(=O)N4CCCCC4)ccc3c3nccn23)cn1 [Example 56]
2 to 5 nM	O=C(c1ccc2c(c1)nc(-c1cccnc1)n1ccnc21)N1CCCCC1 [Example 57]
< 2 nM	Cn1ccc2cc(-c3nc4cc(C(=O)N5CCCCC5)ccc4c4nccn34)cnc21 [Example 62]
2 to 5 nM	O=C(c1ccc2c(c1)nc(-c1ccc3nccnc3c1)n1ccnc21)N1CCCCC1 [Example 67]
2 to 5 nM	Cn1ncc2cc(-c3nc4cc(C(=O)N5CCCCC5)ccc4c4nccn34)ccc21 [Example 69]
< 2 nM	Cn1ccc2cc(-c3nc4cc(C(=O)N5CCCCC5)ccc4c4nccn34)ccc2c1=O [Example 73]
< 2 nM	CN1Cc2cc(-c3nc4cc(C(=O)N5CCCCC5)ccc4c4ncnn34)ccc2C1=O [Example 76]
< 2 nM	Cc1nc2c3ccc(C(=O)N4CCCCC4)cc3nc(-c3ccc4c(c3)CN(C)C4=O)n2n1 [Example 77]
< 2 nM	CN1Cc2cc(-c3nc4cc(C(=O)N5CCCCC5)ccc4c4cccn34)ccc2C1=O [Example 80]
< 2 nM	CN1Cc2cc(-c3nc4cc(C(=O)N5CCCCC5)ccc4c4ccnn34)ccc2C1=O [Example 81]
